Measurements from US11312690B2, “Compounds, compositions, methods for treating diseases, and methods for preparing compounds” (UNIVERSITY OF LOUISVILLE RESEARCH FOUNDATION, INC., priority 2015, dated 2022).

These compounds were tested on MiaPaCa-2 (assay: Soft agar colony formation). Details: 10 μM; Table 2 experiment, DMSO control 182 ± 7 colonies.
Assay type: cell-based, human
Set-up: Colonies in agar: unit not given here
Description: FIG. 1. Effects of some compounds of Formula (I) on RalGEF inhibitor on soft agar growth and normal growth in 2D of pancreatic carcinoma cell lines. In FIGS. 1A and 1B, Panc-1 (ATCC® CRL-1469™) and MiaPaCa-2 (ATCC® CRL-1420™) mutant Ras containing pancreatic tumor cell lines were plated in soft agar in the presence of 10 μM or 0.9 μM of compound I-1 and scored for the formation of colonies. In FIGS. 1C and 1D, compound I-1 was then tested for the ability to inhibit cell growth on the same cell lines under normal 2D growth conditions on plastic. “0” is the carrier. Cells were seeded at the same density and scored after two weeks in culture.
Human pancreatic tumor cell lines MiaPaca-2 and Panc-1 contain activated K-Ras and were used in the initial screen to identify compound I-1. Soft agar colony formation remains an established in vitro assay to predict tumorigenicity and was used to predict tumorigenicity for compound I-1.
Several other compounds were tested against the Mia Paca-2 cell line using the soft agar colony formation in vitro assay in two experiments. For each table, DMSO was used as a control and, as such, within each table, the DMSO colonies are the measure against which each measurement in the corresponding table is compared.
`COc1cccc(CNc2nc(CN(C)Cc3cccc(OC)c3)nc3scc(C)c23)c1` [Compound I-30] was tested, and the Colonies in agar was 14 ± 2.
Compound `COc1cccc(CNc2nc(CN(C)Cc3cccc(C)c3)nc3sc(C)c(C)c23)c1` [Compound I-29] has a Colonies in agar of 0 ± 0.
In the case of `CCc1cc2c(NCc3cccc(OC)c3)nc(CN(C)Cc3cccc(OC)c3)nc2s1` [Compound I-31], the Colonies in agar is reported as 14 ± 1.
With `COc1cccc(CNc2nc(CN(C)Cc3cccc(OC)c3)nc3sccc23)c1` [Compound I-32] the Colonies in agar was 36 ± 1.
`COc1cccc(CN(C)Cc2nc(NC(C)c3ccccc3)c3c(C)c(C)sc3n2)c1` (stereo not shown) [Compound I-26] was tested, and the Colonies in agar was 0 ± 0.
For `COc1cccc(CNc2nc(CN(C)Cc3cccc(OC)c3)nc3c2c(C)c(C)[s+]3[O-])c1` (stereo not shown) [Compound I-33], the Colonies in agar was 186 ± 4.
With `COc1cccc(CN(C)Cc2nc(NCc3cccc(Cl)c3)c3c(C)c(C)sc3n2)c1` [Compound I-27] the Colonies in agar was 51 ± 9.
`COc1cccc(CN(C)Cc2nc(NCc3cccc(F)c3)c3c(C)c(C)sc3n2)c1` [Compound I-28] was tested, and the Colonies in agar was 54 ± 5.

Same assay, conditions: 10 μM; Table 3 experiment, DMSO control 1686 ± 114 colonies
With `COc1cccc(CN(C)Cc2nc(NCc3ccccc3OC)c3c(C)c(C)sc3n2)c1` [Compound I-43] the Colonies in agar was 272 ± 40.
`COc1cccc(CN(C)Cc2nc(NCc3ccccc3)c3c(C)c(C)sc3n2)c1` [Compound I-46] showed a Colonies in agar of 320 ± 22.
`COc1cccc(CNc2nc(CN(C)Cc3cccc(OC)c3)nc3sc4c(c23)CCC4)c1` [Compound I-45] gave a Colonies in agar of 361 ± 49.
Work on `COc1cccc(CNc2nc(CN(C)Cc3ccccc3)nc3sc(C)c(C)c23)c1` [Compound I-54] yielded a Colonies in agar of 410 ± 31.

Each compound was assayed against T1, interaction of K-Ras with RGL2 (Homo sapiens, UniProt O15211) (assay: Ras/RalGEF binding, immunoprecipitation and immunoblot from co-transfected HEK-293 cells). Details: 10 μM, HA K-Ras 12v and GFP-RGL2, IP/IB, FIG. 3B.
T1 construct: expressed in transfected cells; host or cells: HEK-293
T1 sequence (O15211 1-777): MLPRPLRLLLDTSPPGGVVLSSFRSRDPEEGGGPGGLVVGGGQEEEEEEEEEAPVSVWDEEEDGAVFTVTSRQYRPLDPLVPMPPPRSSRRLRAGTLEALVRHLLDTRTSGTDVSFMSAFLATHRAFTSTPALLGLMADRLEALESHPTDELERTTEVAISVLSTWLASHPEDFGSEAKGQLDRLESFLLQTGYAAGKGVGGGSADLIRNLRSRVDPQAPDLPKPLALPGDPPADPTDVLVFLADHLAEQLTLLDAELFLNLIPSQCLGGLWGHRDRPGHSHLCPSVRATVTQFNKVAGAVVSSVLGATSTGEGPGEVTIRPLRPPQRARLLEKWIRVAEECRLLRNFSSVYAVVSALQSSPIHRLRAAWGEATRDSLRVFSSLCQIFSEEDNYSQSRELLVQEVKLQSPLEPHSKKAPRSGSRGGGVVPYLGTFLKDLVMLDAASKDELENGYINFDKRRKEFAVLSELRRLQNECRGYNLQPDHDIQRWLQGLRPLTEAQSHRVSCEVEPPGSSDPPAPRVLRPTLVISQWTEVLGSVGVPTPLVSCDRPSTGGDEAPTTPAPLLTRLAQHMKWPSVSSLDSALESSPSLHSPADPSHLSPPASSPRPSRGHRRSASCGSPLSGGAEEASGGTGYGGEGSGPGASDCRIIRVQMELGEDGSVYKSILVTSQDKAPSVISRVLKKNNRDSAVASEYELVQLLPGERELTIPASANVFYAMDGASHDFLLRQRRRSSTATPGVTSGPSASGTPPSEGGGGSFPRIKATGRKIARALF
For `COc1cccc(CNc2nc(CN(C)Cc3cccc(OC)c3)nc3ccccc23)c1` [Compound I-2, N-(3-Methoxybenzyl)-2-(((3-methoxybenzyl)(methyl)amino)methyl)quinazolin-4-amine], the “inhibition of RGL2 (Ras/RGL2 interaction)” value was “found to inhibit RGL2”.
